Assay results taken from article PMC4632503, “Targeting of Helicobacter pylori thymidylate synthase ThyX by non-mitotoxic hydroxy-naphthoquinones” (Open Biology, 2015).
“Also recorded” adds a separate entry of the source. Read-outs that look alike come from different tables or passages of the source.

Experiments:
H. pylori strain SS1 [1] = assay: MIC, broth microdilution test, strain SS1; format: cell-based; details: Helicobacter pylori, 24 h, read-out: minimal inhibitory concentration (MIC) strain SS1
Method: (§1) The in vitro anti-bacterial activity of 2-OH-1,4-NQ compounds was assessed against the 26695 and SS1 strains of H. pylori. DMSO was used as control in all experiments.
(§2) Disc diffusion tests were performed in triplicate, including a DMSO-only control on each plate, as specified in the electronic supplementary material. Minimal inhibitory concentrations (MICs) were determined using a broth microdilution test in 24-well microtitre plates. For test inocula, an overnight preculture of H. pylori strains 26695 and SS1 was diluted to an OD600 of approximately 0.1 and 0.5 ml of this suspension was transferred to each well. Ten microlitres of twofold serial dilutions of each compound in DMSO, ranging in concentration from 0.625 to 20 µg ml^−1, were added and the covered plates were incubated for 24 h at 37°C with orbital shaking at 140 r.p.m. under microaerophilic conditions. The MIC was determined as the lowest compound concentration resulting in full growth inhibition after 24 h of incubation. All the tests were done in triplicate, including cell-free and DMSO-only controls.

HpThyX [2] = biological target: T1, HpThyX (Helicobacter pylori, UniProt O26061); assay: tritium release (deprotonation) assay of [5-3H]dUMP; format: biochemical; details: for remaining activity at 100 µM: 20 min, semi-quantitative deprotonation assay, lower = stronger inhibition, read-out: inhibition against ThyX (% remaining activity relative to control); for dTMP-forming activity: quantitative tritium release assay, 100 μM compound, 10 μM ThyX enzyme
T1 construct: His6; made in house; host or cells: Escherichia coli BL21 (plasmid pGL2, pBAD promoter)
Method: (§3) HpThyX activity was assessed by measuring either deprotonation of [5-^3H]dUMP or NAPDH oxidation activities.
In the tritium release (deprotonation) assays, typical reactions contained 10 mM MgCl2, 10% (v/v) glycerol, 500 µM FAD, 2 mM NADPH, 1 mM CH2H4Folate and 10 mM β-mercaptoethanol in 50 mM HEPES (pH 8). Different concentrations of dUMP were also included in the reaction mixtures. The specific activity of tritiated [5-^3H]dUMP (diammonium salt) stock was 15–30 Ci mmol^−1 (Moravek Biochemicals, CA, USA). 2-OH-1,4-NQ derivatives were prepared at 100 µM in 1% DMSO. Reactions were initiated by adding the enzyme (10 µM) and were stopped after 20 min incubation at 37°C.

AGS cells [3] = assay: mitotoxicity, resazurin reduction; format: cell-based, human; details: for mitotoxicity: 0.78 to 50 μg ml^−1, 4 h treatment; for effect on mitochondrial metabolism: low concentrations, resazurin reduction
Method: Mitochondrial toxicity (mitotoxicity) was assessed by measuring resazurin (7-hydroxy-3H-phenoxazin-3-one 10-oxide) reduction by following absorption changes at 570 nm (Mitochondrial Viability Assay; Abcam). Resazurin is an indicator dye that reports on oxidation–reduction reactions taking place in the mitochondria of living cells. AGS cells (≅2.5 × 10^5cells well^−1) cultured in a DMEM galactose/glutamine-supplemented medium were seeded in sterile white-walled 96-well clear-bottom microplates and treated for 4 h with different doses of 2-OH-1,4-NQ compounds ranging from 0.78 to 50 μg ml^−1. Addition of the stain solution was followed by a further 4 h incubation at 37°C (5% CO2, 90% humidity) and A570 was measured. Rotenone, an inhibitor of the mitochondrial respiratory chain complex I, was used as a positive control.

HpThyX [4] = biological target: T1, HpThyX; assay: NADPH oxidation assay; format: biochemical; details: estimated from slope of IC50 versus dUMP concentration
Method: as §3
NADPH oxidation assays were performed at 37°C in 96-well plates (Greiner Bio-One). One hundred microlitres of reaction mixture contained HEPES 50 mM (pH 8.6), NaCl 150 mM, FAD 50 µM, β-mercaptoethanol 1.43 mM, NADPH 500 µM and 10 µM of purified HpThyX. dUMP and 2-OH-1,4-NQ concentrations were varied across 12.5–200 µM and 0.3–100 µM, respectively. Microtitre plates were prepared and transferred to the microplate reader Chameleon II (Hidex). The reactions were started by automatically injecting NADPH into individual wells and ThyX activity was determined by following a decrease in absorbance at 340 nm. A molar extinction coefficient of 6220 M^−1 cm^−1 at 340 nm (ε340) was used to quantify NADPH oxidation. Samples with added DMSO and enzyme-free reactions were used as positive and negative controls, respectively.

AGS cells [5] = assay: cytotoxicity, LDH release; format: cell-based, human; details: 0.78 to 50 μg ml^−1, 24 h
Method: Cytotoxicity of the 2-OH-1,4-NQ derivatives was assessed by measuring lactate dehydrogenase (LDH) release following manufacturer's instructions (Cytotoxicity Detection Kit; Roche Applied Sciences). Briefly, AGS cells (human gastric adenocarcinoma cell line; ATCC Catalog no. CRL-1739TM) were cultured in Ham's F-12 K medium containing 1% of FBS. A total of 3 × 10^4 cells were added per well in a sterile 96-well tissue culture plate. Cells were then treated with different doses of 2-OH-1,4-NQ compounds ranging from 0.78 to 50 μg ml^−1. After a 24 h incubation at 37°C (5% CO2, 90% humidity), the microplates were centrifuged at 250g for 10 min, and the supernatants were carefully removed and transferred into optically clear 96-well microplates (Greiner Bio-One). The dye solution containing iodotetrazolium chloride and sodium lactate was then added to each well to quantify the amount of LDH released into the extracellular medium. LDH was quantified by measuring the A490 using a PowerWave Microplate Spectrophotometer (BioTek).

H. pylori strain 26695 = assay: MIC, broth microdilution test, strain 26695; format: cell-based; details: Helicobacter pylori
Method: as §1, §2

H. pylori 26695 = assay: bactericidal activity, viable counts (CFU) in liquid culture; format: cell-based, Helicobacter pylori; details: exposure up to 24 h, replating on solid media, listed as C8-C1
Method: To determine the bactericidal activity of C8-C1 against H. pylori, liquid BHI medium was inoculated with an overnight culture of H. pylori 26695 at an initial OD600 of 0.1. C8-C1 or chloramphenicol, used as bacteriostatic control, were added after 4 h of culture time at final concentrations of 5 and 30 µg ml^−1. To determine the viable counts of surviving bacteria (colony forming units, CFU), aliquots of culture were then plated in triplicate on blood agar plates after 3 and 24 h exposure.

[6] = tolerance of orogastric treatment in infected mice; format: in vivo, NMRI mice; details: orogastric three times a day, 0.375 mg mouse day^−1, one week
Method: (§4) NMRI-specific pathogen-free mice (Charles River Laboratories) were orogastrically inoculated with 10^8 CFU of the H. pylori mouse-adapted strain SS1, prepared in 100 μl of peptone broth. Four groups of six to eight mice were infected by H. pylori strain SS1. Earlier experiments have established that after one week, colonization of mice is fully established. A negative control group of five mice was inoculated with peptone broth alone and was not colonized by H. pylori. One week after infection, three groups of mice were treated orogastrically three times a day with 500 µl of either compound 010-C, 010-E or 010-I dissolved in 2% β-cyclodextrin at 0.25 mg ml^−1 (0.375 mg mouse d^−1) during one week. As a control, the fourth group of mice was treated orogastrically three times a day by the same amount of 2% β-cyclodextrin (17.6 mM), the vehicle of the compounds. […] This average size is in agreement with the average size of β-cyclodextrin particles that self-aggregate in water at a concentration of 12 mM [39]. After treatment, viable H. pylori cells, colonizing the mouse stomach, were enumerated by culture of serial dilutions of homogenized tissue on blood agar plates containing bacitracin (200 μg ml^−1) and nalidixic acid (10 μg ml^−1) as in [40].

H. pylori strain SS1 [7] = assay: mouse infection and treatment, gastric colonization; format: in vivo, Helicobacter pylori; details: NMRI mice, orogastric three times a day, 0.375 mg mouse day^−1 (17 mg kg^−1), one week
Method: as §4

[8] = tested on: H. pylori strains 26695 and SS1; assay: disc diffusion test; format: cell-based, Helicobacter pylori; details: 10 μg per disc, 72 h
Method: as §2
Figure S2. Disk diffusion antibiograms of H. pylori strains 26695 (A) and SS1 (B) with the 2-OH-1,4-NQ compounds. To perform these disc diffusion tests, an overnight culture of the H. pylori strain was diluted to an OD600 ≈ 0.01. Blood agar plates were flooded with 2 ml of the diluted suspension. […] The diameters of each growth inhibition zone were measured on the Petri dish. […]
subtracting the disc diameter (6 mm) from the measured zone. […]

[9] = 26695, 24 h, full growth inhibition, read-out: minimal inhibitory concentration (MIC) strain 26695
[10] = 26695, 24 h, value in brackets, read-out: minimal inhibitory concentration (MIC) strain 26695

T1 sequence (O26061 whole entry): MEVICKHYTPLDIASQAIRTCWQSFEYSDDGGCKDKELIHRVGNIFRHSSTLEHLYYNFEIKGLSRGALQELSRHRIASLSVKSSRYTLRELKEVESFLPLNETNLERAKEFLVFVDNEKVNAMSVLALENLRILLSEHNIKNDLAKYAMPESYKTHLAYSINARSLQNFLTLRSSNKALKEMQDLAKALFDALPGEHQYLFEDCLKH

Row | Structure (SMILES) | MIC (H. pylori strain SS1 [1]; full growth inhibition) [µg/mL] | MIC (H. pylori strain SS1 [1]; value in brackets) [µM] | remaining activity at 100 µM (HpThyX [2]) [%] | dTMP-forming activity (HpThyX [2]) | mitotoxicity (AGS cells [3]) | effect on mitochondrial metabolism (AGS cells [3]) | Ki (HpThyX [4]) [nM] | cytotoxicity (AGS cells [5]) | MIC (H. pylori strain 26695; [9]) [µg/mL] | MIC (H. pylori strain 26695; [10]) [µM] | kind of anti-microbial activity / viable cells after exposure (H. pylori 26695) | tolerance in mice [6] | effect on body or stomach weight ([6]; data not shown) | decrease in the colonization loads (geometric means) versus vehicle (H. pylori strain SS1 [7]) [log] | decrease in the colonization loads versus vehicle (H. pylori strain SS1 [7]) [fold] | activity in disc diffusion tests [8] | MIC (H. pylori strain 26695; liquid cultures, strains 26695 and SS1 not distinguished, read-out: MIC) [µg/mL]
1 | COc1ccc(CC2=C(O)C(=O)c3ccccc3C2=O)cc1 [007-A, 2-hydroxy-3-(4-methoxybenzyl)-1,4-naphthoquinone] | 10 | 34 | 38.5 | suppressed the dTMP-forming activity | non-mitotoxic | activated the mitochondrial metabolism | 367 | non-cytotoxic | 10 | 34 | no viable cells were recovered; also recorded: bactericidal | – | – | – | – | – | –
2 | CCCCC1=C(O)C(=O)c2ccccc2C1=O [010-I] | 10 | 43.4 | 64.3 | suppressed the dTMP-forming activity | non-mitotoxic | activated the mitochondrial metabolism | 258 | non-cytotoxic | 10 | 43.4 | – | tolerated in mice | None of the aforementioned treatments affected either the body or stomach weight | 1.22 | 17 | – | –
3 | O=C1C(Cl)=C(Nc2ccc(F)cc2)C(=O)c2ccccc21 [010-G] | 0.625 | 2.07 | 21.1 | – | – | – | – | cytotoxic | 0.625 | 2.07 | – | – | – | – | – | inactive | ~0.625
